# Patent US8183263B2 (priority 2007, dated 2012)
# Test system: HCV replicon
# Assay: HCV replicon replication assay (NPT level by captured ELISA)
# Assay type: cell-based
# Conditions: Hepatitis C virus, 72 h; Huh-7 HCV replicon-containing cells, three days incubation; read-out: Activity (inhibition of HCV replicon replication)
# Summary of the method: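 Huh-7 cells carrying HCV subgenomic replicon (NS3–NS5B, neo reporter) treated 3 days at 37 °C with 6 concentrations from 10 to 0.03 micromolar in G418-free medium, equal DMSO across wells. Replication measured on day four as NPTII level by in-cell captured ELISA on fixed cells; interferon alpha as positive control.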
row,SMILES,EC50
1,"CCCCCOc1cc(Nc2nc(-c3cnc(OC)nc3)cs2)ccc1C(F)(F)F [Cmp 72, 4-(2-methoxypyrimidin-5-yl)-N-(3-(pentyloxy)-4-(trifluoromethyl)phenyl)thiazol-2-amine]",< 1000 nM
2,"Fc1sc(Nc2ccc(CCCCCCCCCl)c(C(F)(F)F)c2)nc1-c1cccnc1 [Cmp 231, N-(4-(8-chlorooctyl)-3-(trifluoromethyl)phenyl)-5-fluoro-4-(pyridin-3-yl)thiazol-2-amine]",< 1000 nM
3,"CCCCCCCCOc1ccc(Nc2nc(-c3cccnc3)cs2)cc1S(C)(=O)=O [Cmp 151, N-(3-(methylsulfonyl)-4-(octyloxy)phenyl)-4-(pyridin-3-yl)thiazol-2-amine]",< 1000 nM
4,"CCCCCCCCc1cc(Nc2nc(-c3cccnc3)cs2)cc(C(F)(F)F)c1 [Cmp 80, N-(3-octyl-5-(trifluoromethyl)phenyl)-4-(pyridin-3-yl)thiazol-2-amine]",< 1000 nM
5,"CCCCCCCCc1ccc(Nc2nc(-c3cnccn3)cs2)cc1C(F)(F)F [Cmp 161, N-(4-octyl-3-(trifluoromethyl)phenyl)-4-(pyrazin-2-yl)thiazol-2-amine]",< 1000 nM
6,"CCCCCCCCc1cc2ccc(Nc3nc(-c4cccnc4)cs3)cc2o1 [Cmp 114, N-(2-octylbenzofuran-6-yl)-4-(pyridin-3-yl)thiazol-2-amine]",< 1000 nM
7,"CCCCCCCCc1cc2cc(Nc3nc(-c4cccnc4)cs3)ccc2o1 [Cmp 106, N-(2-octylbenzofuran-5-yl)-4-(pyridin-3-yl)thiazol-2-amine]",< 1000 nM
8,"CCCCCCCCc1ccc(Nc2nc(-c3cncc(C#N)c3)cs2)cc1C(F)(F)F [Cmp 180, 5-(2-(4-octyl-3-(trifluoromethyl)phenylamino)thiazol-4-yl)nicotinonitrile]",< 1000 nM
9,"CCCCCCCCOc1ccc(Nc2nc(-c3ccc4nncn4c3)cs2)cc1C(F)(F)F [Cmp 177, 4-([1,2,4]triazolo[4,3-a]pyridin-6-yl)-N-(4-(octyloxy)-3-(trifluoromethyl)phenyl)thiazol-2-amine]",< 1000 nM
10,"Fc1sc(Nc2ccc(Oc3ccc(Cl)cc3)c(C(F)(F)F)c2)nc1-c1cccnc1 [Cmp 97, N-(4-(4-chlorophenoxy)-3-(trifluoromethyl)phenyl)-5-fluoro-4-(pyridin-3-yl)thiazol-2-amine]",< 1000 nM
11,"COc1ncc(-c2nc(Nc3ccc(Oc4ccccc4)c(C(F)(F)F)c3)sc2F)cn1 [Cmp 95, 5-fluoro-4-(2-methoxypyrimidin-5-yl)-N-(4-phenoxy-3-(trifluoromethyl)phenyl)thiazol-2-amine]",1000 to 10000 nM
12,"CCc1ccc(Oc2ccc(Nc3nc(-c4cccnc4)c(F)s3)cc2C(C)=O)cc1 [Cmp 131, 1-(2-(4-ethylphenoxy)-5-(5-fluoro-4-(pyridin-3-yl)thiazol-2-ylamino)phenyl)ethanone]",< 1000 nM
13,"CCCCCCCCOc1ccc(Nc2ncc(Br)s2)cc1C(F)(F)F [Cmp 143, 5-bromo-N-(4-(octyloxy)-3-(trifluoromethyl)phenyl)thiazol-2-amine]",< 1000 nM
14,"N#Cc1ccc(Oc2ccc(Nc3nc(-c4cccnc4)cs3)cc2C(F)(F)F)cc1 [Cmp 48, 4-(4-(4-(pyridin-3-yl)thiazol-2-ylamino)-2-(trifluoromethyl)phenoxy)benzonitrile]",< 1000 nM
15,FC(F)(F)c1cc(Nc2nc(-c3cccnc3)cs2)ccc1OCCCCCc1ccccc1 [Cmp 21],< 1000 nM
16,"CCCCCCCCOc1cc(Nc2nc(-c3cnc(OC)nc3)cs2)ccc1C(F)(F)F [Cmp 71, 4-(2-methoxypyrimidin-5-yl)-N-(3-(octyloxy)-4-(trifluoromethyl)phenyl)thiazol-2-amine]",< 1000 nM
17,"COc1ncc(-c2csc(Nc3ccc(Oc4ccccc4)c(C(F)(F)F)c3)n2)cn1 [Cmp 51, 4-(2-methoxypyrimidin-5-yl)-N-(4-phenoxy-3-(trifluoromethyl)phenyl)thiazol-2-amine]",< 1000 nM
18,"CCCCCOc1cc(Nc2nc(-c3ccc(F)cc3)cs2)ccc1C(F)(F)F [Cmp 76, 4-(4-fluorophenyl)-N-(3-(pentyloxy)-4-(trifluoromethyl)phenyl)thiazol-2-amine]",< 1000 nM
